# Patent US9982234B2, “Culture medium composition for improving regenerative capacity of stem cells, and stem cell culturing method using same” (R BIO CO., LTD., priority 2013, dated 2018)
# Key:
# Format in all cases: cell-based, human
# [1] = tested on: adipose mesenchymal stem cells; experiment: Telomerase activity of stem cells (Telo TAGGG Telomerase PCR ELISA kit); set-up: telomerase activity (N = 3): unit not given here; conditions: for telomerase activity (N = 3): cells cultured to passage 3
# Method: (§1) While the adipose mesenchymal stem cells isolated in Example 1 was cultured in each of the media, the adipose mesenchymal stem cells were collected at different days of culture, and the viability, cell size and CPDL of the cells were measured. Also, telomerase activity was measured for the cells subcultured to passage 3. The Alnus japonica extract in medium 11 was prepared in the following manner.
# Adipose mesenchymal stem cells isolated from persons in their 40s, 50s and 60s according to the method of Example 1 were cultured to passage 3 in each of the media shown in Table 4 above, and then the telomerase activity of the stem cells was measured using Telo TAGGG Telomerase PCR ELISA kit (Roche).
# [2] = tested on: adipose mesenchymal stem cells; experiment: Viability of stem cells (Luna automated cell counter); set-up: viability of stem cells: unit not given here; conditions: for effect on the viability of the cells: 4 days of culture, result in words; for viability of stem cells: mean n=3
# Method: (§2) The adipose mesenchymal stem cells of three persons, obtained by subculture to passage 3 in Example 1, were seeded into each of the following media and cultured for 4 days. During 4 days of culture, the morphology of the cells was observed. In addition, the size, viability and CDPL (cell population doubling level) of the cells were measured and expressed as mean values.
# as §1
# The viability of the stem cells was measured using Luna™ automated cell counter (n=3).
# [3] = tested on: adipose mesenchymal stem cells; experiment: Morphology of stem cells under phase contrast microscope; conditions: 4 days of culture; result in words
# Method: as §2
# The morphology of the stem cells was observed under a phase contrast microscope and photographed (see FIG. 1).
# [4] = tested on: adipose mesenchymal stem cells; experiment: Size of stem cells (Luna automated cell counter); conditions: for effect on the size of the cells: 4 days of culture, result in words; for size of stem cells: mean n=3
# Method: as §2, §1
# The adipose mesenchymal stem cells isolated in Example 1 were seeded in each of the media, and then treated with trypsin at different days of culture. Next, the adipose mesenchymal stem cells were collected, and the size (μm) of the stem cells was measured using Luna™ automated cell counter (n=3).
# [5] = tested on: adipose mesenchymal stem cells; experiment: Cell population doubling level (CPDL) of stem cells
# Method: as §2, §1
# The cell population doubling level (CPDL) of the stem cells was calculated using the following equation: CPDL=[…], wherein Nfinal: the number of finally obtained cells; and Ninitial: the number of initially seeded cells.
# [6] = Day 1 post seeding, 20 nM in M9 medium
# [7] = Day 1 post seeding, 50 nM in M9 medium
# [8] = Day 2 post seeding, 20 nM in M9 medium
# [9] = Day 2 post seeding, 50 nM in M9 medium
# [10] = Day 3 post seeding, 20 nM in M9 medium
# [11] = Day 3 post seeding, 50 nM in M9 medium
# [12] = Day 4 post seeding, 20 nM in M9 medium
# [13] = Day 4 post seeding, 50 nM in M9 medium
compound,measurement,setting,value
"COC1=C(OC)C(=O)C(C/C=C(\C)CC/C=C(\C)CC/C=C(\C)CC/C=C(\C)CC/C=C(\C)CC/C=C(\C)CC/C=C(\C)CC/C=C(\C)CC/C=C(\C)CCC=C(C)C)=C(C)C1=O [Coenzyme Q10, coenzyme Q-10]",telomerase activity (N = 3),[1]; 5 μM in M9 medium,2.817
same,telomerase activity (N = 3),[1]; 10 μM in M9 medium,1.964
same,effect on the viability of the cells,[2],no significant effect on the viability
same,effect on the morphology of the cells,[3],no significant effect on the morphology
same,effect on the size of the cells,[4],no significant effect on the size
apelin,telomerase activity (N = 3),[1]; 5 nM in M9 medium,2.838
same,telomerase activity (N = 3),[1]; 20 nM in M9 medium,3.068
same,telomerase activity compared between media,"[1]; 20 nM, passage 3, result in words",highest telomerase activity
same,cell population doubling level (CPDL),"[5]; Day 0 post seeding, 20 nM in M9 medium",0.00
same,cell population doubling level (CPDL),"[5]; Day 0 post seeding, 50 nM in M9 medium",0.00
same,cell population doubling level (CPDL),[5]; [6],0.89
same,cell population doubling level (CPDL),[5]; [7],0.56
same,cell population doubling level (CPDL),[5]; [8],2.84
same,cell population doubling level (CPDL),[5]; [9],1.65
same,cell population doubling level (CPDL),[5]; [10],6.54
same,cell population doubling level (CPDL),[5]; [11],5.11
same,cell population doubling level (CPDL),[5]; [12],9.28
same,cell population doubling level (CPDL),[5]; [13],8.20
same,ability to proliferate,"[5]; cultured in medium containing the substance, result in words",proliferation ability efficiently increased
same,effect on the viability of the cells,[2],no significant effect on the viability
same,viability of stem cells,[2]; [6],97.2
same,viability of stem cells,[2]; [7],91.7
same,viability of stem cells,[2]; [8],98.9
same,viability of stem cells,[2]; [9],100
same,viability of stem cells,[2]; [10],98.8
same,viability of stem cells,[2]; [11],98.8
same,viability of stem cells,[2]; [12],99.4
same,viability of stem cells,[2]; [13],99.2
same,effect on the morphology of the cells,[3],no significant effect on the morphology
same,effect on the size of the cells,[4],no significant effect on the size
same,size of stem cells,[4]; [6],19.0 μm
same,size of stem cells,[4]; [7],18.6 μm
same,size of stem cells,[4]; [8],18.3 μm
same,size of stem cells,[4]; [9],15.6 μm
same,size of stem cells,[4]; [10],18.2 μm
same,size of stem cells,[4]; [11],18.0 μm
same,size of stem cells,[4]; [12],18.5 μm
same,size of stem cells,[4]; [13],17.9 μm
Oc1ccc(C=Cc2cc(O)cc(O)c2)cc1 [Resveratrol],telomerase activity (N = 3),[1]; 1 μM in M9 medium,2.042
same,telomerase activity (N = 3),[1]; 2 μM in M9 medium,1.654
"CC(C)(C)c1cc(O)ccc1O [TBH-Q, T-BHQ]",telomerase activity (N = 3),[1]; 5 μM in M9 medium,2.524
same,telomerase activity (N = 3),[1]; 20 μM in M9 medium,2.838
"Cc1c(-c2cnccn2)ssc1=S [Oltipraz, oltipraz]",telomerase activity (N = 3),[1]; 7 μM in M9 medium,1.968
same,telomerase activity (N = 3),[1]; 10 μM in M9 medium,2.137
